This note sets out measurements from patent US20080107661A1, “MUC1 and ABL” (Dana-Farber Cancer Institute, Inc., priority 2006, published 2008).

Structures can show the parent of a compound that is named as a salt.

Data set [1] concerns GFP-c-Abl. The experiment in a line: Nuclear targeting of GFP-c-Abl in transiently transfected 293 cells. In kind it is cell-based, human. The source says:
(§1) Cell culture. Human HeLa cervical cancer cells, HCT116/vector (HCT116 colorectal carcinoma cells stably transfected with an empty vector), HCT116/MUC1 (HCT116 colorectal carcinoma cells stably transfected with an expression vector encoding a MUC1 polypeptide), HCT116/MUC1(Y46F) (HCT116 colorectal carcinoma cells stably transfected with an expression vector encoding a mutant MUC1 polypeptide containing an amino acid substitution at position 46 changing a tyrosine (Y) to phenylalanine (F)) colon cancer cells (Ren et al., (2002) J. Biol. Chem. 277: 17616-17622) and 293 cells were cultured in Dulbecco's modified medium with 10% heat-inactivated fetal bovine serum, 100 units/ml penicillin, 100 μg/ml streptomycin and 2 mM L-glutamine. Human ZR-75-1/vector (ZR-75-1 breast cancer cells stably transfected with an empty vector) and ZR-75-1/MUC1siRNA (ZR-75-1 breast cancer cells stably transfected with an expression vector encoding an siRNA specific for MUC1) breast cancer cells (Ren et al., (2004) Cancer Cell 5:163-175) were grown in RPMI1640 medium containing 10% heat-inactivated fetal bovine serum and antibiotics. Cells were treated with 1 μM adriamycin (ADR; Calbiochem), 100 μM cisplatin (CDDP; Sigma) or 10 μM STI571 (Gleevec; Novartis, Basel, Switzerland).
Cell transfections. […]

Data set [2] relates to c-Abl. Put plainly: Nuclear and cytosolic c-Abl in HeLa/vector and HeLa/MUC1 cells after genotoxic agents (subcellular fractionation, immunoblot). The format is cell-based, human. The settings on record: 1 μM ADR, 2 hours.
Source text: as §1
Subcellular fractionation. Nuclear fractions were prepared as described (Kharbanda et al., (1996) Cancer Res. 56:3617-3621). Cytosolic fractions were prepared as described (Hill et al., (2004) EMBO J. 23:2134-2145). Cell membrane fractions were prepared with the Plasma Membrane Extraction Kit (BioVision Research Products, Mountain View, Calif.). Mitochondria were purified as described (Ren et al., (2004) Cancer Cell 5:163-175; Ren et al., (2006) Oncogene 25:20-31).
Immunoprecipitations and immunoblot analysis. Cell lysates were prepared as described (Kharbanda et al., (1995) Nature 376:785-788); Yoshida et al., (2005) Nat. Cell Biol. 7:278-285). Soluble proteins were incubated with anti-MUC1-N (Kufe et al., (1984) Hybridoma 3:223-232), anti-MUC1-C (Ab5; Neomarker, Montreal, Quebec), anti-Flag (Sigma, St. Louis, Mo.), anti-c-Abl (Ab3; Oncogene, San Diego, Calif.) or anti-14-3-3 (Abcam Inc., Cambridge, Mass.) antibodies for 2 hours at 4° C., followed by precipitation with protein G-Sepharose beads for 1 hour. […] Intensity of the signals was determined by densitometric scanning. Statistical significance was determined by the Student's t-test.
For orientation: A western blot detects proteins with antibodies after separation by electrophoresis.

The subject of data set [3] is HCT116 cells. The experiment in a line: Assessment of apoptosis (sub-G1 DNA, propidium iodide, FACScan). The conditions noted are these: 10 μM STI571 with CDDP, 12 h. The format is cell-based, human.
Data set [4] deals with MUC1-CD (purified MUC1 cytoplasmic domain, thrombin-cleaved from GST-MUC1-CD).
Data set [5] relates to MUC1-CD(Y60F).
The test system of data set [6] is MUC1(Y60F), MUC1 with tyrosine 60 of the cytoplasmic domain changed to phenylalanine.
For data set [7], the system named is MUC1 (mucin 1), wild-type, expressed in cells as heterodimer of MUC1-N and MUC1-C.

As for `COc1cccc2c1C(=O)c1c(O)c3c(c(O)c1C2=O)C[C@@](O)(C(=O)CO)C[C@@H]3O[C@H]1C[C@H](N)[C@H](O)[C@H](C)O1` [ADR, adriamycin], in data set [1] (GFP-c-Abl with coexpressed MUC1, 2 hours), the “ADR-induced nuclear targeting of c-Abl” value is listed as “attenuated by coexpression of MUC1”. In addition, in data set [1] (GFP-c-Abl without MUC1, ADR, 2 hours), the “nuclear targeting of GFP-tagged c-Abl” value is listed as “increased by ADR treatment”. The “nuclear targeting of c-Abl” value in data set [2] (HeLa/MUC1 cells) is “little to no nuclear targeting of c-Abl”; in data set [2] (HeLa/vector cells), “targeting of c-Abl to the nucleus”.

`Cc1ccc(NC(=O)c2ccc(CN3CCN(C)CC3)cc2)cc1Nc1nccc(-c2cccnc2)n1` [STI751, imatinib mesylate]: the “effect on CDDP-induced apoptosis (sub-G1 DNA)” value is on record as “significantly attenuated” in data set [3] (HCT116/MUC1(Y60F) cells), “no significant effect” in data set [3] (HCT116/MUC1 cells) and “significantly attenuated” in data set [3] (HCT116/vector cells).

As to “GST-c-Abl (glutathione-S-transferase fused in frame with a wild-type c-Abl polypeptide)”, the “phosphorylation of MUC1-CD (in vitro kinase assay, 32P-ATP, SDS-PAGE and autoradiography)” value in data set [4] is “Analysis of the reaction products by SDS-PAGE and autoradiography showed phosphorylation of MUC1-CD”. Besides, the “phosphorylation of MUC1-CD(Y60F) (in vitro kinase assay, 32P-ATP, SDS-PAGE and autoradiography)” value in data set [5] is “c-Abl phosphorylation was substantially decreased with the MUC1-CD(Y60F) mutant”.

On to “GST-c-Abl(K-R) (GST fused to a kinase defective mutant c-Abl, lysine to arginine in the active site)”, for which the “phosphorylation of MUC1-CD (in vitro kinase assay, 32P-ATP, SDS-PAGE and autoradiography)” value in data set [4] is “There was no detectable phosphorylation when MUC1-CD was incubated with a purified kinase-inactive c-Abl(K-R)”.

“c-Abl (nonreceptor c-Abl tyrosine kinase), endogenous in human cell lines”: the “c-Abl Thr-735 phosphorylation (anti-c-Abl precipitates, immunoblot anti-phospho-c-Abl-Thr-735)” value is “c-Abl Thr-735 phosphorylation was attenuated by expression of MUC1, but not MUC1(Y60F), in HCT116 cells” in data set [6] and “c-Abl Thr-735 phosphorylation was attenuated by expression of MUC1” in data set [7].
